Measurements: ChEMBL document CHEMBL4414631 (J Med Chem, 2019)
≈ marks a conversion by molar mass, not a printed value.

Experiments:
[1] = target: Phosphatidylinositol 4,5-bisphosphate 3-kinase catalytic subunit gamma isoform (Homo sapiens, UniProt P48736)
Description: Inhibition of PI3Kgamma (unknown origin) using biotin-PIP3 as substrate preincubated for 15 mins followed by substrate addition and measured after 60 mins by fluorescence polarization assay

[2] = Solubility of compound by CLND method; type: physicochemical
[3] = Lipophilicity, logD of compound at pH 7.4 by HPLC-MS analysis; settings: buffer
[4] = target: Phosphatidylinositol 4,5-bisphosphate 3-kinase catalytic subunit beta isoform (Homo sapiens, UniProt P42338); assay: Inhibition of PI3Kbeta (unknown origin) using biotin-PIP3 as substrate preincubated for 15 mins followed by substrate addition and measured after 60 mins by fluorescence polarization assay
[5] = target: Phosphatidylinositol 4,5-bisphosphate 3-kinase catalytic subunit alpha isoform (Homo sapiens, UniProt P42336)
Description: Inhibition of PI3Kalpha (unknown origin) using biotin-PIP3 as substrate preincubated for 15 mins followed by substrate addition and measured after 60 mins by fluorescence polarization assay

[6] = target: T1, Phosphatidylinositol 4,5-bisphosphate 3-kinase catalytic subunit delta isoform (Homo sapiens, UniProt O00329)
T1 sequence (O00329 whole entry): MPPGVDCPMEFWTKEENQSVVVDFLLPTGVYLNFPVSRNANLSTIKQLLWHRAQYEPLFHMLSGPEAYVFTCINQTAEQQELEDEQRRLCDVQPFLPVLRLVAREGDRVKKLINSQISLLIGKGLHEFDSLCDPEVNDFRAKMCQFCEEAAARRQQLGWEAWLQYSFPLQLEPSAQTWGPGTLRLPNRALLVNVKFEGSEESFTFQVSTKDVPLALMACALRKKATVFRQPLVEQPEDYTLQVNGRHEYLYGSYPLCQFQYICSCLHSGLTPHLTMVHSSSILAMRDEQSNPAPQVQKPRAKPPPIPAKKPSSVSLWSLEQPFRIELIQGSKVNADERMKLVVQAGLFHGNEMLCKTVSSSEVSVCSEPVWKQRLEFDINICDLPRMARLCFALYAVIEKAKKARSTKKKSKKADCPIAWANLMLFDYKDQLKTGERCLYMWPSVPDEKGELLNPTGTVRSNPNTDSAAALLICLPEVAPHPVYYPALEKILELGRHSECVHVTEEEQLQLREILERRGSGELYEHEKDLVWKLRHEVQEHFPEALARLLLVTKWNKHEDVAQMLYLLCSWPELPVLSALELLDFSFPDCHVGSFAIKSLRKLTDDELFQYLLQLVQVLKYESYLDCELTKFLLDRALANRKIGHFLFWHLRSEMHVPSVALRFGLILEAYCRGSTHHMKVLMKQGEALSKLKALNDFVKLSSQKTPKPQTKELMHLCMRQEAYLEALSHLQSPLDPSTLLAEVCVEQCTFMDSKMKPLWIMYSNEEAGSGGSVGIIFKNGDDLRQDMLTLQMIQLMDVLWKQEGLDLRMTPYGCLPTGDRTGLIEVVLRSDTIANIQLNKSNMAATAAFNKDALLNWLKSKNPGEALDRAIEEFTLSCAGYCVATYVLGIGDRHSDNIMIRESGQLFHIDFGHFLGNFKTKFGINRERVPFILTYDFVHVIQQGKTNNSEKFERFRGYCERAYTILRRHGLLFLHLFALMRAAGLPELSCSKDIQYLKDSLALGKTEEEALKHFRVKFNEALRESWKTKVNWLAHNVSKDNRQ
Description: Inhibition of PI3Kdelta (unknown origin) using biotin-PIP3 as substrate preincubated for 15 mins followed by substrate addition and measured after 60 mins by fluorescence polarization assay

Albumin = Albumin (Homo sapiens, UniProt P02768); assay: Binding affinity to human serum albumin by HPLC analysis; type: ADME; settings: isolated protein
Chain of Albumin (P02768 whole entry): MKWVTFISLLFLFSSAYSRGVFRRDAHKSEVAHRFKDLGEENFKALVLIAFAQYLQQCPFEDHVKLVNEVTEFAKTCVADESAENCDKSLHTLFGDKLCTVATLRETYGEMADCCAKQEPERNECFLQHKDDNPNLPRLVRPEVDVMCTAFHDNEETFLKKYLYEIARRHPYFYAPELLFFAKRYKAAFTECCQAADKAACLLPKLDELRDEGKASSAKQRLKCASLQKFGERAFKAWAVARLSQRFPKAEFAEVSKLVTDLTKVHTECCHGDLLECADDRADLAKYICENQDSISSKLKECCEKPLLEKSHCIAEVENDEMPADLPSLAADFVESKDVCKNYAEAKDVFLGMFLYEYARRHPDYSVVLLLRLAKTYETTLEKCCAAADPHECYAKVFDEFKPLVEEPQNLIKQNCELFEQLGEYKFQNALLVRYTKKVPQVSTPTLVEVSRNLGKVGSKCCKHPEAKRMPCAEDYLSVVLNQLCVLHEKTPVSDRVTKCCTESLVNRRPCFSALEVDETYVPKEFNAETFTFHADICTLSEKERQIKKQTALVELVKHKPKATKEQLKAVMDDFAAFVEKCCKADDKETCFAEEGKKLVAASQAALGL

Chain of Phosphatidylinositol 4,5-bisphosphate 3-kinase catalytic subunit alpha isoform (P42336 whole entry, canonical isoform): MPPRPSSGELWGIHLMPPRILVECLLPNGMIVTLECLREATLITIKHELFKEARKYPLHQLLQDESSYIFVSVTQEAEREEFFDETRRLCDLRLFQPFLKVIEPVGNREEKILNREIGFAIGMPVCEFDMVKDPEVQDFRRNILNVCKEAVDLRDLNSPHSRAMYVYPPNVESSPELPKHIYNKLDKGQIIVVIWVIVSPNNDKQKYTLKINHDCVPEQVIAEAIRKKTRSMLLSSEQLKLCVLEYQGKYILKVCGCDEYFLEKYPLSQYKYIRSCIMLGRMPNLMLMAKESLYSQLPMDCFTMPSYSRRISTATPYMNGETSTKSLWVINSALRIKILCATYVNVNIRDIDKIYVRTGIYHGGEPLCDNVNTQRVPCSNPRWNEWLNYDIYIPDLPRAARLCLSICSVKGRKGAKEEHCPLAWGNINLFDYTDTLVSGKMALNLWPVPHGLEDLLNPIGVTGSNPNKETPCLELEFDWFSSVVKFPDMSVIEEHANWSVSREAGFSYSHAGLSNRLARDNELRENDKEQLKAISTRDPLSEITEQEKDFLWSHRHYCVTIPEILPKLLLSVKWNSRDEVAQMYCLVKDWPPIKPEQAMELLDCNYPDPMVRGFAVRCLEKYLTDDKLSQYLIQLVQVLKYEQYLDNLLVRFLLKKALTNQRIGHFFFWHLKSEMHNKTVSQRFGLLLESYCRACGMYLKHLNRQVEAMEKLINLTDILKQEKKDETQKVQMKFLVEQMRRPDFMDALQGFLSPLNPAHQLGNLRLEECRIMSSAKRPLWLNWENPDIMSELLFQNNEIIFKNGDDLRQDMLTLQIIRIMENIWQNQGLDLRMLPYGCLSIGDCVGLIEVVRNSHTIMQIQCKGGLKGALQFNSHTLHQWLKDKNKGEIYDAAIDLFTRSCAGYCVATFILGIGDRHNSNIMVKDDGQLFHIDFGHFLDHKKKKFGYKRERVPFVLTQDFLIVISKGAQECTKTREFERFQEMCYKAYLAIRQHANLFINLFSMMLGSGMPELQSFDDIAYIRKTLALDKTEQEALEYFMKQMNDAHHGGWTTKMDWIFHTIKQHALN
Chain of Phosphatidylinositol 4,5-bisphosphate 3-kinase catalytic subunit beta isoform (P42338 whole entry, canonical isoform): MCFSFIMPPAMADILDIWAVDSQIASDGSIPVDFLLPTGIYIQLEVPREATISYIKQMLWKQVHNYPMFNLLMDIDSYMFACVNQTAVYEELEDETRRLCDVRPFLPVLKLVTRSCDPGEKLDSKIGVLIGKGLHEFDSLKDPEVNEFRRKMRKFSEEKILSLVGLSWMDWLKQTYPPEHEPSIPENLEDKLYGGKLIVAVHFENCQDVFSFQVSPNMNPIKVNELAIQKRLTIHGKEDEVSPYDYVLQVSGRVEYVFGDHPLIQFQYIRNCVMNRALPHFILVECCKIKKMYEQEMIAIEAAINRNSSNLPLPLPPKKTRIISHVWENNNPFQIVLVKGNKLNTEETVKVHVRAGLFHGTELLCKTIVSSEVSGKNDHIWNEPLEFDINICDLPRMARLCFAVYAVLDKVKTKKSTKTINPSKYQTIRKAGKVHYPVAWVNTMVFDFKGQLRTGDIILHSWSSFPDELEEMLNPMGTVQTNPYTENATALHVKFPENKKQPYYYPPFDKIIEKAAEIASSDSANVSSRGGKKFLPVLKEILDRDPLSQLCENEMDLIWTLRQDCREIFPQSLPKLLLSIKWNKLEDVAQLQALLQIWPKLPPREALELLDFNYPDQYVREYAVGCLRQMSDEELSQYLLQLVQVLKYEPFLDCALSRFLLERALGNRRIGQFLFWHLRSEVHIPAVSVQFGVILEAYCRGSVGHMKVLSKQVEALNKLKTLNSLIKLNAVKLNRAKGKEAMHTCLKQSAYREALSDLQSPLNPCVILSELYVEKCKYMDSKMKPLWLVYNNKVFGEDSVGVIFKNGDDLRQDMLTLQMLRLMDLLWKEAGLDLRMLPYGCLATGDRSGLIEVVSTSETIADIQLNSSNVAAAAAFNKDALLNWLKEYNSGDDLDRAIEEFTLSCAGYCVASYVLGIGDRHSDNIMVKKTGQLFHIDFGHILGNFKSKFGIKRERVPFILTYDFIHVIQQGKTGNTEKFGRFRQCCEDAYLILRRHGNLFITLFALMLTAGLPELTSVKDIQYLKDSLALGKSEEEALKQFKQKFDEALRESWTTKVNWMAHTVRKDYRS
Chain of Phosphatidylinositol 4,5-bisphosphate 3-kinase catalytic subunit gamma isoform (P48736 whole entry, canonical isoform): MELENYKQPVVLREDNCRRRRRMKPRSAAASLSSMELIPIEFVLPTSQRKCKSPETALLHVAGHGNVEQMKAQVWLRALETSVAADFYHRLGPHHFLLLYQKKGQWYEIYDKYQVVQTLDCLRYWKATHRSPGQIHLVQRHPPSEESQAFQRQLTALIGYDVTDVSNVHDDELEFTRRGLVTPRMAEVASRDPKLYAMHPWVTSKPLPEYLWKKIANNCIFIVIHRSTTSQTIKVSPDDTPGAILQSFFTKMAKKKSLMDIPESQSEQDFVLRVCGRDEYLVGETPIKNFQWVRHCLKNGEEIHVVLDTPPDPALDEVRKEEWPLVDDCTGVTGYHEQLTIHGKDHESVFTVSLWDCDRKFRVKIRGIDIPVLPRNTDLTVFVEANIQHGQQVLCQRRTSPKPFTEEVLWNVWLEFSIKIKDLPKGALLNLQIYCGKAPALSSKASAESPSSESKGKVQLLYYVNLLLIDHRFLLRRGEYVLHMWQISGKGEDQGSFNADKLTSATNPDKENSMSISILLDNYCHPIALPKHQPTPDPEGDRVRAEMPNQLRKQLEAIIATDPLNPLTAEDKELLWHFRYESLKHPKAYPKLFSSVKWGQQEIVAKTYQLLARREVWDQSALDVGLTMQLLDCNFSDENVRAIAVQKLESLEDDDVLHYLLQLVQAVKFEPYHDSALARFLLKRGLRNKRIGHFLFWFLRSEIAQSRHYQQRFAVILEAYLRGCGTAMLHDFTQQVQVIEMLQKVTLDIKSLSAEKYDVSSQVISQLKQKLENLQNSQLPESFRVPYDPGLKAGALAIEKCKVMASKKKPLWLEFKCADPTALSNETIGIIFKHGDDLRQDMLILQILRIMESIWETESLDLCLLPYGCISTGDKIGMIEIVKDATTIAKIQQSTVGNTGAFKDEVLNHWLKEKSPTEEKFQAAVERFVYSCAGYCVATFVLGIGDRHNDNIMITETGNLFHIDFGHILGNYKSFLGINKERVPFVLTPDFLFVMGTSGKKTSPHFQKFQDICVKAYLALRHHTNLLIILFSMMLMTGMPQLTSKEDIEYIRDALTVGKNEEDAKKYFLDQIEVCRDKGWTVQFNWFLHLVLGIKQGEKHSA

In the case of `CN(C1CCN(Cc2cc3nc(-c4cnc(N)nc4)nc(N4CCOCC4)c3s2)CC1)S(C)(=O)=O`, the IC50 [1] is reported as 25.1 nM, the solubility kinetic [2] is reported as 118 µM (≈ 61.2 µg/mL) and the logD [3] is reported as 3.3. The IC50 [4] was 251 nM, the IC50 [5] was 15.8 nM and the IC50 [6] was 7.94 nM. It also gave an Activity (Albumin) of 87.8%.

Compound `COCC(=O)N(C)C1CCCN(Cc2cc3nc(-c4cccc5[nH]ccc45)nc(N4CCOCC4)c3s2)C1` (racemic) has an IC50 [1] of 2000 nM, a solubility kinetic [2] of 85 µM (≈ 45.4 µg/mL) and a logD [3] of 4.8. It also gave an IC50 [4] of 3160 nM, an IC50 [5] of 3160 nM and an IC50 [6] of 20 nM. The Activity (Albumin) was 95.2%.

`COCC(=O)N(C)C1CCN(Cc2cc3nc(-c4cnc(N)nc4)nc(N4CCOCC4)c3s2)C1` (racemic) gave an IC50 [1] of 7.94 nM, a solubility kinetic [2] of at least 2720 µM and a logD [3] of 2.7. The IC50 [4] was 251 nM, the IC50 [5] was 15.8 nM and the IC50 [6] was 6.31 nM. It also gave an Activity (Albumin) of 81.2%.

`CS(=O)(=O)NC1CCN(Cc2cc3nc(-c4cnc(N)nc4)nc(N4CCOCC4)c3s2)C1` (racemic) showed an IC50 [1] of 20 nM, a solubility kinetic [2] of at least 491 µM and a logD [3] of 2.4. For the same compound, the IC50 [4] was 158 nM, the IC50 [5] was 10 nM and the IC50 [6] was 12.6 nM. For the same compound, the Activity (Albumin) was 80.9%.
